The target in one assay is T1, rat μ (C6-MOR) opioid receptor (Rattus norvegicus, UniProt P33535).
T1 construct: expressed in transfected cells
T1 sequence (P33535 whole entry): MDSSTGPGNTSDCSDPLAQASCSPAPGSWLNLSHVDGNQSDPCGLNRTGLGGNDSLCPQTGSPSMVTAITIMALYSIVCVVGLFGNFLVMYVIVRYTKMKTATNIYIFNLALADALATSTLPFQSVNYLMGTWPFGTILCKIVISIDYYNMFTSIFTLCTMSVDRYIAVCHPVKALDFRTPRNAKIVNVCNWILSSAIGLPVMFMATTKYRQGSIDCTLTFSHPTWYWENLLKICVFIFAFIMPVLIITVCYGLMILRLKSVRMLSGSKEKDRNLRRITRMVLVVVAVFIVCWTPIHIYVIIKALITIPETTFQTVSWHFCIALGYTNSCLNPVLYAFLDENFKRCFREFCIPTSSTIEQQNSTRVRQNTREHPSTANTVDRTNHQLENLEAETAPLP
In words: Radioligand binding assay, [3H]diprenorphine displacement, MOR. Conditions: displacement of 0.2 nM [3H]diprenorphine, C6-MOR membranes; mean ± standard error. As for the experimental part: (§1) In Vitro Pharmacology-Cell Lines and Membrane Preparations. All tissue culture reagents were purchased from Gibco Life Sciences (Grand Island, N.Y., U.S.). C6-rat glioma cells stably transfected with a rat μ (C6-MOR) or rat δ (C6-DOR) opioid receptor20 and Chinese hamster ovary (CHO) cells stably expressing a human K (CHO-KOR) opioid receptor21 were used for all in vitro assays. Cells were grown to confluence at 37° C. in 5% CO2 in Dulbecco's modified Eagle medium containing 10% fetal bovine serum and 5% penicillin/streptomycin. Membranes were prepared by washing confluent cells three times with ice cold phosphate buffered saline (0.9% NaCl, 0.61 mM Na2HPO4, 0.38 mM KH2PO4, pH 7.4). Cells were detached from the plates by incubation in warm harvesting buffer (20 mM HEPES, 150 mM NaCl, 0.68 mM EDTA, pH 7.4) and pelleted by centrifugation at 200 g for 3 min. The cell pellet was suspended in ice-cold 50 mM Tris-HCl buffer, pH 7.4, and homogenized with a Tissue Tearor (Biospec Products, Inc., Bartlesville, Okla., U.S.) for 20 s at setting 4. The homogenate was centrifuged at 20 000 g for 20 min at 4° C., and the pellet was rehomogenized in 50 mM Tris-HCl with a Tissue Tearor for 10 s at setting 2, followed by recentrifugation. The final pellet was resuspended in 50 mM Tris-HCl and frozen in aliquots at […]. Protein concentration was determined via Bradford assay using bovine serum albumin as the standard.
(§2) Radioligand Binding Assays. Radioactive compounds were purchased from Perkin-Elmer (Waltham, Mass., U.S.). Opioid ligand binding assays were performed using competitive displacement of 0.2 nM [3H]diprenorphine (250 μCi, 1.85 TBq/mmol) by the test compound from membrane preparations containing opioid receptors. The assay mixture, containing membrane suspension (20 μg protein/tube) in 50 mM Tris-HCl buffer (pH 7.4), [3H]diprenorphine, and various concentrations of test peptide, was incubated at room temperature for 1 h to allow binding to reach equilibrium. The samples were rapidly filtered through Whatman GF/C filters using a Brandel harvester (Brandel, Gaithersburg, Md., U.S.) and washed three times with 50 mM Tris-HCl buffer. The radioactivity retained on dried filters was determined by liquid scintillation counting after saturation with EcoLume liquid scintillation cocktail in a Wallac 1450 MicroBeta (Perkin-Elmer, Waltham, Mass., U.S.). Nonspecific binding was determined using 10 μM naloxone. Inhibitory constant (Ki) values were calculated using nonlinear regression analysis to fit a logistic equation to the competition data using GraphPad Prism, version 5.01, for Windows (GraphPad Software Inc., La Jolla, Calif.). The results presented are the mean±standard error from at least three separate assays performed in duplicate.
T3 sequence (P41145 whole entry): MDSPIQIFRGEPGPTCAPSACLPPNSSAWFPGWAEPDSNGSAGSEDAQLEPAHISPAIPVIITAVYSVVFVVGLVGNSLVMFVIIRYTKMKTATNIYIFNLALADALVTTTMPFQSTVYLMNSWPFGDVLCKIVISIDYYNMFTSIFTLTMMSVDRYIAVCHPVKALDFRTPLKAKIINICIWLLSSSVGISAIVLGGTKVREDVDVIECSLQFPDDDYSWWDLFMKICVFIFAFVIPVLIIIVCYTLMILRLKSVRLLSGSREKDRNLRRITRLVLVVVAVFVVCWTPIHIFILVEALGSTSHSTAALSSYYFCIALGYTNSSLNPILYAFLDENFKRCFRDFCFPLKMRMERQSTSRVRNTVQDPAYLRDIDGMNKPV
What is called Ki is a measure of affinity in units of concentration, obtained from inhibition or displacement. Read a high Ki as a looser hold on the target. Regarding `Cc1cc(O)cc(C)c1C[C@H](N)C(=O)N[C@@H]1CCN2CCCc3cc(Cc4ccccc4)cc1c32` [Compound 1069], the inhibitory constant (Ki) was determined as 0.39 ± 0.14 nM.
`Cc1cc(O)cc(C)c1C[C@H](N)C(=O)N[C@@H]1CCNc2c(-c3cc4ccccc4o3)cc(Cc3ccccc3)cc21` [Compound 1095]: the affinity corresponds to a Ki of 3.14 ± 1 nM.
For `Cc1cc(O)cc(C)c1C[C@H](N)C(=O)N[C@@H]1CCNc2ccc(Cc3cc4ccccc4o3)cc21` [Compound 1065], the Ki was 0.11 ± 0.03 nM.

The target in the next assay is T2, rat δ (C6-DOR) opioid receptor (Rattus norvegicus, UniProt P33533).
T2 construct: expressed in transfected cells
T2 sequence (P33533 whole entry): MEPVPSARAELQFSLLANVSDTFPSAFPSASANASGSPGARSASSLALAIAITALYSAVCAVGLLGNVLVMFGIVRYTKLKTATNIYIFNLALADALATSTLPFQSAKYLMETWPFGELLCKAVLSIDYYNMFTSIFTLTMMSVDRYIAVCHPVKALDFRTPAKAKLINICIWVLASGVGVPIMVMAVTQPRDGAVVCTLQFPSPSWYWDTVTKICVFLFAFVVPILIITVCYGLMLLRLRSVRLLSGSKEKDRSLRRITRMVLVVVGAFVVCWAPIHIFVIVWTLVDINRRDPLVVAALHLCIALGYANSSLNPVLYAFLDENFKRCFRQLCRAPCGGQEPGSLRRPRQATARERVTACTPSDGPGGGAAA
In words: Radioligand binding assay, [3H]diprenorphine displacement, DOR. Conditions: displacement of 0.2 nM [3H]diprenorphine, C6-DOR membranes; mean ± standard error. As for the experimental part:
as §1, §2
The compound `Cc1cc(O)cc(C)c1C[C@H](N)C(=O)N[C@@H]1CCN2CCCc3cc(Cc4ccccc4)cc1c32` [Compound 1069] displayed a Ki of 2.26 ± 0.8 nM.
In the case of `Cc1cc(O)cc(C)c1C[C@H](N)C(=O)N[C@@H]1CCNc2c(-c3cc4ccccc4o3)cc(Cc3ccccc3)cc21` [Compound 1095], affinity was put at a Ki of 71 ± 17 nM.
Still for that read-out and setting: the value for `Cc1cc(O)cc(C)c1C[C@H](N)C(=O)N[C@@H]1CCNc2ccc(Cc3cc4ccccc4o3)cc21` [Compound 1065] was 4.76 ± 1.9 nM.

Another assay addresses T3, human κ (CHO-KOR) opioid receptor (Homo sapiens, UniProt P41145).
T3 construct: expressed in transfected cells
Nature of the assay: Radioligand binding assay, [3H]diprenorphine displacement, KOR. To be noted: displacement of 0.2 nM [3H]diprenorphine, CHO-KOR membranes; mean ± standard error. Here is the method:
as §1, §2
For the compound `Cc1cc(O)cc(C)c1C[C@H](N)C(=O)N[C@@H]1CCN2CCCc3cc(Cc4ccccc4)cc1c32` [Compound 1069], the inhibition constant (Ki) was 6.62 ± 2.57 nM.
`Cc1cc(O)cc(C)c1C[C@H](N)C(=O)N[C@@H]1CCNc2c(-c3cc4ccccc4o3)cc(Cc3ccccc3)cc21` [Compound 1095] showed a Ki of 800 ± 115 nM.
`Cc1cc(O)cc(C)c1C[C@H](N)C(=O)N[C@@H]1CCNc2ccc(Cc3cc4ccccc4o3)cc21` [Compound 1065]: the affinity, expressed as Ki, was 41.4 ± 22.4 nM.

The target of a further assay is T1, rat μ (C6-MOR) opioid receptor. In words: Stimulation of [35S]GTPγS binding, MOR. In kind it is biochemical. To be noted: [35S]GTPγS binding, C6-MOR membranes; mean ± standard error. Here is the method:
as §1
(§3) Stimulation of [^35S]GTPyS Binding. Agonist stimulation of [35S]guanosine 5′-O-[γ-thio]triphosphate ([^35S]GTPγS, 1250 Ci, 46.2 TBq/mmol) binding was measured as described previously Briefly, membranes (10-20 μg of protein/tube) were incubated 1 h at room temperature in GTPyS buffer (50 mM Tris-HCl, 100 mM NaCl, 5 mM MgCl2, pH 7.4) containing 0.1 nM [^35S]GTPγS, 30 μM guanosine diphosphate (GDP), and varying concentrations of test peptides. Peptide stimulation of [^35S]GTPyS was compared with 10 μM standard compounds [D-Ala^2,N-MePhe^4,Gly-ol]encephalin (DAMGO) at MOR, D-Pen^2,5-enkephalin (DPDPE) at DOR, or […] at KOR. The reaction was terminated by rapidly filtering through GF/C filters and washing 10 times with GTPyS buffer, and retained radioactivity was measured as described above. The results presented are the mean±standard error from at least three separate assays performed in duplicate; maximal stimulation was determined using nonlinear regression analysis with GraphPad Prism (GraphPad Software Inc., La Jolla, Calif.).
In general terms: GTPγS is a poorly hydrolysed GTP analogue; its binding reports G protein activation.
For orientation: EC50 means the concentration that produces a half-maximal response. A low value points to a more potent agent. Compound `Cc1cc(O)cc(C)c1C[C@H](N)C(=O)N[C@@H]1CCN2CCCc3cc(Cc4ccccc4)cc1c32` [Compound 1069] showed an EC50 of 1.12 ± 0.52 nM.
Regarding `Cc1cc(O)cc(C)c1C[C@H](N)C(=O)N[C@@H]1CCNc2c(-c3cc4ccccc4o3)cc(Cc3ccccc3)cc21` [Compound 1095], it took 15.6 ± 6.86 nM to reach a half-maximal effect (EC50).
Take `Cc1cc(O)cc(C)c1C[C@H](N)C(=O)N[C@@H]1CCNc2ccc(Cc3cc4ccccc4o3)cc21` [Compound 1065]: the EC50 was determined as 1.14 ± 0.49 nM.

The same assay, now with this note: [35S]GTPγS maximal stimulation compared with 10 μM standard DAMGO.
In general, Emax refers to the greatest response seen or fitted, relative to the assay's reference. In turn, `Cc1cc(O)cc(C)c1C[C@H](N)C(=O)N[C@@H]1CCN2CCCc3cc(Cc4ccccc4)cc1c32` [Compound 1069] displayed an Emax of 95.2 ± 3.99%.
Compound `Cc1cc(O)cc(C)c1C[C@H](N)C(=O)N[C@@H]1CCNc2c(-c3cc4ccccc4o3)cc(Cc3ccccc3)cc21` [Compound 1095] gave an Emax of 100 ± 2.48%.
Compound `Cc1cc(O)cc(C)c1C[C@H](N)C(=O)N[C@@H]1CCNc2ccc(Cc3cc4ccccc4o3)cc21` [Compound 1065] gave an Emax of 97.9 ± 1.43%.

A further assay concerns the target T2, rat δ (C6-DOR) opioid receptor. Nature of the assay: Stimulation of [35S]GTPγS binding, DOR. In kind it is biochemical. Conditions: [35S]GTPγS binding, C6-DOR membranes; mean ± standard error. As for the experimental part: as §1, §3
`Cc1cc(O)cc(C)c1C[C@H](N)C(=O)N[C@@H]1CCN2CCCc3cc(Cc4ccccc4)cc1c32` [Compound 1069] came in with an EC50 of 570 ± 298 nM.
`Cc1cc(O)cc(C)c1C[C@H](N)C(=O)N[C@@H]1CCNc2c(-c3cc4ccccc4o3)cc(Cc3ccccc3)cc21` [Compound 1095]: the “EC50 (nm) DOR” value is reported as “dns”.
With `Cc1cc(O)cc(C)c1C[C@H](N)C(=O)N[C@@H]1CCNc2ccc(Cc3cc4ccccc4o3)cc21` [Compound 1065], the “EC50 (nm) DOR” value is recorded as “dns”.

Still in this assay, the particulars now being: [35S]GTPγS maximal stimulation compared with 10 μM standard DPDPE.
In the case of `Cc1cc(O)cc(C)c1C[C@H](N)C(=O)N[C@@H]1CCN2CCCc3cc(Cc4ccccc4)cc1c32` [Compound 1069], the maximum response (Emax) came out at 50.4 ± 13.7%.
In the case of `Cc1cc(O)cc(C)c1C[C@H](N)C(=O)N[C@@H]1CCNc2c(-c3cc4ccccc4o3)cc(Cc3ccccc3)cc21` [Compound 1095], the “% stimulation DOR” value was “dns”.
`Cc1cc(O)cc(C)c1C[C@H](N)C(=O)N[C@@H]1CCNc2ccc(Cc3cc4ccccc4o3)cc21` [Compound 1065] displayed an Emax of 13.9%.

The target in the next assay is T3, human κ (CHO-KOR) opioid receptor. Nature of the assay: Stimulation of [35S]GTPγS binding, KOR. The format is biochemical. To be noted: [35S]GTPγS binding, CHO-KOR membranes; mean ± standard error. Here is the method:
as §1, §3
On to `Cc1cc(O)cc(C)c1C[C@H](N)C(=O)N[C@@H]1CCN2CCCc3cc(Cc4ccccc4)cc1c32` [Compound 1069], for which the EC50 was found to be 1000 nM.
Regarding `Cc1cc(O)cc(C)c1C[C@H](N)C(=O)N[C@@H]1CCNc2c(-c3cc4ccccc4o3)cc(Cc3ccccc3)cc21` [Compound 1095], the “EC50 (nm) KOR” value is on record as “dns”.
As for `Cc1cc(O)cc(C)c1C[C@H](N)C(=O)N[C@@H]1CCNc2ccc(Cc3cc4ccccc4o3)cc21` [Compound 1065], the “EC50 (nm) KOR” value is listed as “dns”.

The same assay, now with this note: [35S]GTPγS maximal stimulation compared with 10 μM standard U-69,593.
For `Cc1cc(O)cc(C)c1C[C@H](N)C(=O)N[C@@H]1CCN2CCCc3cc(Cc4ccccc4)cc1c32` [Compound 1069], the Emax is 78.4%.
Consider `Cc1cc(O)cc(C)c1C[C@H](N)C(=O)N[C@@H]1CCNc2c(-c3cc4ccccc4o3)cc(Cc3ccccc3)cc21` [Compound 1095], for which the “% stimulation KOR” value is “dns”.
As to `Cc1cc(O)cc(C)c1C[C@H](N)C(=O)N[C@@H]1CCNc2ccc(Cc3cc4ccccc4o3)cc21` [Compound 1065], the “% stimulation KOR” value is “dns”.

The values above are taken from patent US10519114B2, “Peptidomimetics and methods of using the same” (The Regents of the University of Michigan, priority 2016, dated 2019).
